Measured values published in patent US8642593B2, “2,4-pyrimidinediamine compounds and prodrugs and their uses” (Rigel Pharmaceuticals, Inc., priority 2009, dated 2014).
Like-named read-outs stand apart in the source and are kept apart here.

Tests used:
[1] = system: mast cell activation induced by FcγR cross-linking (CHMC cells); assay: LD Tryptase CHMC: tryptase release assay; assay type: cell-based, Human; details: for inhibition in tryptase assay, in words: prodrug
Protocol: Compounds are assayed for inhibition of mast cell activation induced by FcγR cross-linking by measuring the activity of tryptase released upon degranulation as follows:
Human mast cells are cultured and differentiated from CD38-negative progenitor cell as described in U.S. Patent Publication No. 2005/0234049, which is hereby incorporated herein by reference in its entirety. For example, 65 μL of various concentrations of the test compound are prepared in MT (137 mM NaCl, 2.7 mM KCl, 1.8 mM CaCl2, 1.0 mM MgCl2, 5.6 mM Glucose, 20 mM Hepes (pH 7.4), 0.1% Bovine Serum Albumin, (Sigma, #A4503)) containing 2% MeOH and 1% DMSO, or control buffer are added to duplicate 96-well V-bottom plates. Pelleted and re-suspended (in warm MT) CHMC cells (65 μL) are added to each 96-well plate, mixed and incubated for 1 hour at 37° C. […] MT (25 μL) is added to control wells. After a 60-minute incubation at 37° C., cells and cell debris were pelleted by centrifugation at 1000 rpm for 10 min and tryptase and leukotriene C4 levels are measured.
To measure tryptase levels, 25 μL of supernatant from each well is transferred to a fresh 96-well black bottom plate, to which 100 μL of fresh tryptase substrate solution [(Z-Ala-Lys-Arg-AMC2TFA; Enzyme Systems Products, #AMC-246)]1:2000 in tryptase assay buffer [0.1M Hepes (pH 7.5), 10% w/v Glycerol, 10 μM Heparin (Sigma H-4898) 0.01% NaN3] is added. After 30 minutes incubation at room temperature, the optical density of the plates is measured at 355 nm/460 nm on a spectrophotometric plate reader.
Compounds of the disclosure were assayed for their ability to inhibit mast cell activation induced by FcγR cross-linking by measuring the activity of tryptase released upon degranulation.

[2] = system: allergen induced basophil degranulation; assay: CD63 Assay (BASOTEST, FACS, whole blood, anti-IgE); assay type: cell-based; details: whole blood, anti-IgE; Table 2, unit inferred
Protocol: Compounds are tested for the ability to inhibit allergen induced basophil degranulation. The BASOTEST® kit (Orpegen Pharma GmbH, #10-0500) is used in this assay. In a 5 mL FACS tube 105 μL of Heparinized whole blood, 25 μL of test compound solution (in DMSO) are incubated at room temperature for 30-60 minutes. To induce degranulation, 20 μL stimulation buffer (Reagent B) is added, and the tube is incubated for 10 min in a 37° C. water bath. Then, 100 μL of anti-IgE (2 μg/mL) is added, or 100 µL of washing solution (reagent A) is added (i.e., as a negative control). The tube is incubated for 20 min in a 37° C. water bath. Degranulation is then stopped by incubation on ice for 5 min. 20 μL of staining reagent (reagent F) is added, and the tube is incubated on ice in the dark for 20 min. 2 mL of room temperature lysing solution is added, and the tube is incubated at room temperature for 10 min. The tubes are spun down at 4° C. for 5 min at 1600 rpm, and the supernatant is discarded. 3 mL washing solution (reagent A) is added, and the tubes spun down at 4° C. for 5 min at 1600 rpm, and the supernatant is discarded. 200 μL washing solution is added to the remaining cell pellet, and the samples are incubated on ice in the dark until analysis (within 2 h). Analysis is performed using flow cytometry at 488 nm using the conditions specified in the BASOTEST® kit instructions to determine percentage of activated basophilic granulocytes.

[3] = human mast cells, anti-IgG stimulation, read-out: IC50 (LD Tryptase CHMC)

Row | SMILES | IC50 [1, 3] [nM] | inhibition in tryptase assay, in words [1] | IC50 ([1]; Homo sapiens, Mast cell, Table 2, unit inferred, read-out: LD Tryptase CHMC) [nM] | IC50 [2] [nM]
1 | CC1(C)Oc2ccc(Nc3nc(Nc4ccc(N5CCOCC5)nc4)ncc3F)nc2N(COP(=O)([O-])[O-])C1=O.[Na+].[Na+] [Compound 2, N4-[2,2-Dimethyl-4-[(dihydrogenphosphonoxy)methyl]-3-oxo-5-pyrido[1,4]oxazin-6-yl]-5-fluoro-N2-(6-morpholinopyridin-3-yl)-2,4-pyrimidinediamine disodium salt] | 21900 | only micromolar inhibition | – | –
2 | CC1(C)Oc2ccc(Nc3nc(Nc4ccc(N5CCOCC5)cc4)ncc3F)nc2N(COP(=O)([O-])[O-])C1=O.[Na+].[Na+] [Compound 4, N4-[2,2-Dimethyl-4-[(dihydrogenphosphonoxy)methyl]-3-oxo-5-pyrido[1,4]oxazin-6-yl]-5-fluoro-N2-(4-morpholinophenyl)-2,4-pyrimidinediamine disodium salt] | 2360 | only micromolar inhibition | – | –
3 | COc1cc(Nc2ncc(F)c(Nc3ccc4c(n3)NC(=O)C(C)(C)O4)n2)cc(OC)c1OC [N4-(2,2-Dimethyl-3-oxo-4H-5-pyrido[1,4]oxazin-6-yl)-5-fluoro-N2-(3,4,5-trimethoxyphenyl)-2,4-pyrimidinediamine, reference compound] | – | – | 40 | 930
